Measured values published in the supplement of paper PMC10307832.

Compound: Cn1cncc1[C@@](N)(c1ccc(Cl)cc1)c1ccc2c(c1)c(-c1cccc(Cl)c1)cc(=O)n2C [Tipifarnib] + CS(=O)(=O)N1CCN(Cc2cc3nc(-c4cccc5[nH]ncc45)nc(N4CCOCC4)c3s2)CC1 [Pictilisib] (partner 1 µM)
Assay: relative viability (nuclei count vs DMSO), 5 days (fraction); higher = more cells survive
Procedure, shortened: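 Values are medians from duplicate plates. Each reflects relative viability, defined as the nuclei count of treated wells over that of vehicle wells. Lung cancer cell lines in 1536-well plates were pin-tool dosed one day after seeding with one drug alone or with a fixed anchor-drug dose plus five library-drug doses (not always all listed) in √10 steps, then fixed, stained and imaged at 4× after 5 days.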

| Cell Line | relative viability (first compound 0.01 µM) | relative viability (first compound 0.03162 µM) | relative viability (first compound 0.1 µM) | relative viability (first compound 0.3162 µM) | relative viability (first compound 1 µM) |
| --- | --- | --- | --- | --- | --- |
| 201T | 0.633 | 0.682 | 0.664 | 0.559 | 0.551 |
| A549 | 0.53 | 0.44 | 0.387 | 0.256 | 0.22 |
| A-427 | 0.675 | 0.511 | 0.673 | 0.677 | 0.373 |
| ABC-1 | 0.808 | – | 0.623 | 0.583 | 0.492 |
| BEN | 0.543 | 0.587 | 0.543 | 0.472 | 0.417 |
| CAL-12T | 0.388 | 0.329 | 0.384 | 0.414 | 0.32 |
| COR-L23 | 0.816 | 0.509 | 0.458 | 0.383 | 0.298 |
| COR-L 105 | 0.47 | 0.33 | 0.357 | 0.353 | 0.355 |
| Calu-6 | 0.891 | 0.641 | 0.555 | 0.442 | 0.386 |
| ChaGo-K-1 | 0.694 | 0.8 | 0.71 | 0.618 | 0.542 |
| EBC-1 | 0.313 | 0.199 | 0.198 | 0.183 | 0.242 |
| EKVX | 0.477 | 0.4 | 0.455 | 0.339 | 0.355 |
| EMC-BAC-2 | 0.573 | 0.509 | 0.467 | 0.525 | 0.366 |
| EPLC-272H | 0.339 | 0.265 | 0.392 | 0.283 | 0.186 |
| H3255 | 0.565 | 0.449 | 0.416 | 0.375 | 0.395 |
| HARA | 0.403 | 0.373 | 0.313 | 0.362 | 0.148 |
| HCC-15 | 0.629 | 0.547 | 0.556 | 0.426 | 0.224 |
| HCC-44 | 0.667 | 0.619 | 0.451 | 0.262 | 0.363 |
| HCC-78 | 0.19 | 0.24 | 0.191 | 0.2 | 0.176 |
| HCC-366 | 0.145 | 0.133 | 0.0968 | 0.0769 | 0.0755 |
| HCC-827 | 0.955 | 0.905 | 0.775 | 0.653 | 0.675 |
| HOP-62 | 0.506 | 0.158 | 0.24 | 0.3 | 0.26 |
| IA-LM | 0.133 | 0.121 | 0.136 | 0.114 | 0.114 |
| LC-2-ad | 0.515 | 0.371 | 0.255 | 0.325 | 0.191 |
| LCLC-97TM1 | 0.179 | 0.147 | 0.12 | 0.193 | 0.108 |
| LCLC-103H | 0.566 | 0.606 | 0.617 | 0.491 | 0.469 |

| Cell Line | relative viability (first compound 0.01 µM) | relative viability (first compound 0.03162 µM) | relative viability (first compound 0.1 µM) | relative viability (first compound 0.3162 µM) | relative viability (first compound 1 µM) |
| --- | --- | --- | --- | --- | --- |
| LK-2 | 0.615 | 0.5 | 0.541 | 0.305 | 0.485 |
| LOU-NH91 | 0.517 | 0.446 | 0.499 | 0.501 | 0.388 |
| LU99A | 0.29 | 0.264 | 0.219 | 0.208 | 0.193 |
| LXF-289 | 0.86 | 0.793 | 0.735 | 0.699 | 0.464 |
| NCI-H23 | 0.469 | 0.448 | 0.312 | 0.268 | 0.232 |
| NCI-H322M | 0.533 | 0.543 | 0.47 | 0.464 | 0.481 |
| NCI-H358 | 0.387 | 0.367 | 0.362 | 0.347 | 0.268 |
| NCI-H441 | 0.489 | 0.461 | 0.463 | 0.328 | 0.212 |
| NCI-H460 | 0.42 | 0.396 | 0.379 | 0.275 | 0.126 |
| NCI-H520 | 0.283 | 0.227 | 0.243 | 0.275 | 0.166 |
| NCI-H596 | 0.392 | 0.365 | 0.354 | 0.373 | 0.312 |
| NCI-H647 | 0.403 | 0.416 | 0.364 | 0.406 | 0.167 |
| NCI-H650 | 1.14 | 0.746 | 0.647 | 0.557 | 0.351 |
| NCI-H661 | 0.441 | 0.535 | 0.419 | 0.474 | 0.326 |
| NCI-H727 | 0.625 | 0.438 | 0.484 | 0.389 | 0.444 |
| NCI-H838 | 0.404 | 0.368 | 0.324 | 0.3 | 0.279 |
| NCI-H1299 | 0.64 | 0.837 | 0.422 | 0.35 | 0.298 |
| NCI-H1355 | 0.439 | 0.401 | 0.356 | 0.301 | 0.293 |
| NCI-H1395 | 0.578 | 0.547 | 0.538 | 0.47 | 0.521 |
| NCI-H1437 | 0.457 | 0.466 | 0.45 | 0.343 | 0.212 |
| NCI-H1563 | 0.669 | 0.64 | 0.655 | 0.628 | 0.589 |
| NCI-H1650 | 0.409 | 0.228 | 0.337 | 0.265 | 0.191 |
| NCI-H1651 | 0.632 | 0.566 | 0.562 | 0.512 | 0.319 |
| NCI-H1666 | 0.464 | 0.393 | 0.419 | 0.332 | 0.367 |
| NCI-H1703 | 0.239 | 0.234 | 0.201 | 0.21 | 0.214 |
| NCI-H1734 | 0.486 | 0.356 | 0.38 | 0.331 | 0.346 |

| Cell Line | relative viability (first compound 0.01 µM) | relative viability (first compound 0.03162 µM) | relative viability (first compound 0.1 µM) | relative viability (first compound 0.3162 µM) | relative viability (first compound 1 µM) |
| --- | --- | --- | --- | --- | --- |
| NCI-H1755 | 0.466 | 0.358 | 0.423 | 0.344 | 0.274 |
| NCI-H1792 | 0.237 | 0.235 | 0.152 | 0.117 | 0.131 |
| NCI-H1793 | 0.446 | 0.256 | 0.307 | 0.247 | 0.265 |
| NCI-H1915 | 0.581 | 0.513 | 0.511 | 0.397 | 0.31 |
| NCI-H1944 | 0.38 | 0.313 | 0.348 | 0.295 | 0.279 |
| NCI-H1975 | 0.347 | 0.293 | 0.255 | 0.228 | 0.259 |
| NCI-H1993 | 0.686 | 0.812 | 0.861 | 0.888 | 0.913 |
| NCI-H2009 | 0.981 | 0.579 | 0.524 | 0.466 | 0.319 |
| NCI-H2023 | 0.238 | 0.212 | 0.203 | 0.169 | 0.159 |
| NCI-H2085 | 0.513 | 0.478 | 0.446 | 0.541 | 0.43 |
| NCI-H2087 | 0.796 | 0.682 | 0.587 | 0.427 | 0.385 |
| NCI-H2126 | 0.491 | 0.492 | 0.518 | 0.478 | 0.391 |
| NCI-H2170 | 0.317 | 0.291 | 0.295 | 0.278 | 0.222 |
| NCI-H2228 | 0.369 | 0.388 | 0.325 | 0.202 | 0.243 |
| NCI-H2347 | 0.613 | 0.478 | 0.658 | 0.648 | 0.404 |
| NCI-H2405 | 0.406 | 0.412 | 0.351 | 0.405 | 0.404 |
| NCI-H3122 | 0.6 | 0.489 | 0.442 | 0.347 | 0.27 |
| PC-3 [JPC-3] | 0.811 | 0.651 | 0.651 | 0.44 | 0.508 |
| PC-14 | 0.656 | 0.59 | 0.251 | 0.169 | 0.173 |
| RERF-LC-KJ | 0.551 | 0.501 | 0.561 | 0.347 | 0.328 |
| SK-LU-1 | 0.574 | 0.568 | 0.424 | 0.378 | 0.299 |
| SK-MES-1 | 0.349 | 0.401 | 0.395 | 0.247 | 0.239 |
| SW 1573 | 0.492 | 0.426 | 0.397 | 0.289 | 0.236 |
| UMC-11 | 0.676 | 0.511 | 0.495 | 0.445 | 0.31 |
